We go through 32 compounds from ChEMBL document CHEMBL3734743, “Potent complement C3a receptor agonists derived from oxazole amino acids: Structure-activity relationships” (Bioorg Med Chem Lett, 2015).

Usually IC50 stands for the concentration that inhibits the measured activity by half. A higher IC50 goes with weaker potency. The inhibition is the change of the read-out against control, counted positive when it falls.

Assay [1] deals with T1, C3a anaphylatoxin chemotactic receptor (Homo sapiens, UniProt Q16581).
T1 sequence (Q16581 whole entry): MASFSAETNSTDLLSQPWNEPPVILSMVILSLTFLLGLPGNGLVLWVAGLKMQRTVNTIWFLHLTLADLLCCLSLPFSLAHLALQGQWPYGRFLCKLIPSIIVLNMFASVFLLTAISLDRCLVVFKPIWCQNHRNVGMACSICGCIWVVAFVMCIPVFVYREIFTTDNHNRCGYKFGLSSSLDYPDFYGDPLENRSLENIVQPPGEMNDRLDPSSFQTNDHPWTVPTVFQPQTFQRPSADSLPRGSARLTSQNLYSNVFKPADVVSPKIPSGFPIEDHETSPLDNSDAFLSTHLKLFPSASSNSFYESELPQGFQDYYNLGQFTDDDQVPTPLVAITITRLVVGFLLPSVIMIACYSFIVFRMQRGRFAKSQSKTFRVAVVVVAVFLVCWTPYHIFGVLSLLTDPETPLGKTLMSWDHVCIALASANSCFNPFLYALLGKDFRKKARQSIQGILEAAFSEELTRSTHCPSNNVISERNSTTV
Put plainly: Displacement of [125I]-C3a from C3aR in human MDM cells after 60 mins by microbeta scintillation counting analysis. The assay is classed as cell-based. On the technique in general: Loss of bound radioactivity is the signal in a displacement assay; it reports binding, not function.

Assay [2] has as its target T2, C5a anaphylatoxin chemotactic receptor 1 (Homo sapiens) (UniProt P21730).
T2 sequence (whole entry): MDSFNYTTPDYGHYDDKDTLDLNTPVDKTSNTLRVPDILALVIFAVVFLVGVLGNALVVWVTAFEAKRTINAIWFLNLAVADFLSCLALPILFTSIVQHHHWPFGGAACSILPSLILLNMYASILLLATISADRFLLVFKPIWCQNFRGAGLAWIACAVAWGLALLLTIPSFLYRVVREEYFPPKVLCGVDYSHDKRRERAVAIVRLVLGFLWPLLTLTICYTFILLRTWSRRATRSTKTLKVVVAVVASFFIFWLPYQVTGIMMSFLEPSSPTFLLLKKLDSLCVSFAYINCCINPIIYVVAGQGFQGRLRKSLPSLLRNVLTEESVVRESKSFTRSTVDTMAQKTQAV
Put plainly: Displacement of [125I]-C5a from C5aR in human MDM cells at 20 uM after 60 mins by microbeta scintillation counting analysis. The assay is classed as cell-based.

Assay [3] addresses T3, C3a anaphylatoxin chemotactic receptor (Homo sapiens) (UniProt Q16581).
T3 sequence (whole entry): T1 sequence (Q16581 whole entry)
Put plainly: Displacement of [125I]-C3a from C3aR in human MDM cells at 20 uM after 60 mins by microbeta scintillation counting analysis. The class given is cell-based.

Assay [4] addresses T3, C3a anaphylatoxin chemotactic receptor (Homo sapiens). Put plainly: Agonist activity at C3aR in human MDM cells assessed as inhibition of C3a-induced Ca2+ response at 10 uM measured for 60 secs by fluorescence assay relative to 100 nM C3a. The class given is functional, cell-based.

The structures appear in SMILES notation. Activity calls are given as the source filed them. The rule behind the calls is not given here.

In turn, `CC[C@H](C)[C@H](NC(=O)Cc1c[nH]c2ccccc12)c1nc(C(=O)N[C@@H](CCCNC(=N)N)C(=O)O)co1` showed an IC50 in assay [1] of 152 nM. For the same compound, the inhibition result in assay [2] is “inactive”.
In the case of `Cc1oc([C@H](CC(C)C)NC(=O)CCC(C)C)nc1C(=O)N[C@@H](CCCNC(=N)N)C(=O)O`, the inhibition result in assay [2] and in assay [3] was “inactive” each time. The inhibition in assay [4] turned out to be 95%.
Take `COc1cccc(C(=O)N[C@@H](CC(C)C)c2nc(C(=O)N[C@@H](CCCNC(=N)N)C(=O)O)c(C)o2)c1`: the inhibition entry in assay [2] and in assay [3] was “inactive” each time. Moreover, the inhibition in assay [4] amounted to 134%.
`CC(C)C[C@H](NC(=O)C1c2ccccc2-c2ccccc21)c1nc(C(=O)N[C@@H](CCCNC(=N)N)C(=O)O)co1` came in with an IC50 in assay [1] of 142 nM. For the same compound, the inhibition entry in assay [2] was “inactive”.
Take `Cc1oc([C@H](CC(C)C)NC(=O)c2cc3ccccc3o2)nc1C(=O)N[C@@H](CCCNC(=N)N)C(=O)O`: in assay [2], the inhibition entry was “inactive”. The inhibition came to 19% in assay [3] and 84% in assay [4].
In the case of `CC[C@H](C)[C@H](NC(=O)C1CCCc2ccccc21)c1nc(C(=O)N[C@@H](CCCNC(=N)N)C(=O)O)co1` (stereo partly specified), the IC50 in assay [1] is 104 nM. For the same compound, the inhibition result in assay [2] is “inactive”.
On to `CC[C@H](C)[C@H](NC(=O)c1ccc(C(=O)c2ccccc2)cc1)c1nc(C(=O)N[C@@H](CCCNC(=N)N)C(=O)O)co1`, for which the IC50 in assay [1] turned out to be 157 nM. In assay [2], the inhibition result is “inactive”.
On the same counts, the results for `CC(C)C[C@H](NC(=O)C(C)c1ccc(N2Cc3ccccc3C2=O)cc1)c1nc(C(=O)N[C@@H](CCCNC(=N)N)C(=O)O)co1` (stereo partly specified) are 450 nM and “inactive”.
As for `Cc1oc([C@H](CC(C)C)NC(=O)CC(C)(C)C)nc1C(=O)N[C@@H](CCCNC(=N)N)C(=O)O`, in assay [2], the inhibition result is “inactive”. Also, the results for the inhibition in assay [3] and in assay [4] were 44% and 70%, respectively.
For `COc1ccccc1CC(=O)N[C@@H](CC(C)C)c1nc(C(=O)N[C@@H](CCCNC(=N)N)C(=O)O)c(C)o1` the same measures were “inactive”, 43% and 81%.
For `Cc1oc([C@H](CC(C)C)NC(=O)c2cc3ccccc3[nH]2)nc1C(=O)N[C@@H](CCCNC(=N)N)C(=O)O` the same measures were “inactive”, 26% and 56%.
For `Cc1oc([C@H](CC(C)C)NC(=O)c2ccncc2)nc1C(=O)N[C@@H](CCCNC(=N)N)C(=O)O`, the inhibition entry in assay [2] and in assay [3] was “inactive” each time. Further, the inhibition in assay [4] worked out at 109%.
Take `Cc1oc([C@H](CC(C)C)NC(=O)S(=O)(=O)c2ccccc2)nc1C(=O)N[C@@H](CCCNC(=N)N)C(=O)O`: the inhibition result in assay [2] is “inactive”. Besides, the values for the inhibition in assay [3] and in assay [4] were 44% and 103%, respectively.
For `COc1ccc(CC(=O)N[C@@H](CC(C)C)c2nc(C(=O)N[C@@H](CCCNC(=N)N)C(=O)O)c(C)o2)cc1OC`, the inhibition entry in assay [2] is “inactive”. The inhibition in assay [3] was 65%; in assay [4], 67%.
On the same counts, the results for `Cc1oc([C@H](CC(C)C)NC(=O)c2ccc(/N=N/c3ccccc3)cc2)nc1C(=O)N[C@@H](CCCNC(=N)N)C(=O)O` are “inactive”, 49% and 48%.
Take `CC(C)Cc1ccc(C(C)C(=O)N[C@@H](CC(C)C)c2nc(C(=O)N[C@@H](CCCNC(=N)N)C(=O)O)co2)cc1` (stereo partly specified): the IC50 in assay [1] was 1030 nM. The inhibition entry in assay [2] was “inactive”.
Consider `Cc1oc([C@H](CC(C)C)NC(=O)c2cccnc2)nc1C(=O)N[C@@H](CCCNC(=N)N)C(=O)O`, for which, in assay [2], the inhibition result was “inactive”. Further, the inhibition in assay [3] is 29%; in assay [4] it was 68%.
On the same counts, the results for `Cc1oc([C@H](CC(C)C)NC(=O)C2CCCCC2)nc1C(=O)N[C@@H](CCCNC(=N)N)C(=O)O` are “inactive”, 39% and 107%.
In assay [1], `CC[C@H](C)[C@H](NC(=O)c1ccc(N(C)C)cc1)c1nc(C(=O)N[C@@H](CCCNC(=N)N)C(=O)O)co1` returned an IC50 of 800 nM. In assay [2], the inhibition result was “inactive”.
In the case of `COc1ccc(CCC(=O)N[C@@H](CC(C)C)c2nc(C(=O)N[C@@H](CCCNC(=N)N)C(=O)O)c(C)o2)cc1`, the inhibition result in assay [2] is “inactive”. For the same compound, the inhibition in assay [3] and in assay [4] was 44% each time.
Turning to `Cc1oc([C@H](CC(C)C)NC(=O)c2cc3ccccc3s2)nc1C(=O)N[C@@H](CCCNC(=N)N)C(=O)O`, the inhibition entry in assay [2] is “inactive”. The inhibition in assay [3] was found to be 14%; in assay [4], 62%.
Take `CC[C@H](C)[C@H](NC(=O)C(C)c1ccc2cc(OC)ccc2c1)c1nc(C(=O)N[C@@H](CCCNC(=N)N)C(=O)O)co1` (stereo partly specified): the inhibition entry in assay [2] is “inactive”.
Regarding `Cc1oc([C@H](CC(C)C)NC(=O)c2ccc(C(F)(F)F)cc2)nc1C(=O)N[C@@H](CCCNC(=N)N)C(=O)O`, the inhibition entry in assay [2] is “inactive”. For the same compound, the inhibition in assay [3] stood at 61%; in assay [4] it was 50%.
On the same counts, the results for `COc1ccc(OC)c(CC(=O)N[C@@H](CC(C)C)c2nc(C(=O)N[C@@H](CCCNC(=N)N)C(=O)O)c(C)o2)c1` are “inactive”, 42% and 69%.
In the case of `Cc1oc([C@H](CC(C)C)NC(=O)c2ccccn2)nc1C(=O)N[C@@H](CCCNC(=N)N)C(=O)O`, in assay [2], the inhibition result is “inactive”. Besides, the inhibition in assay [3] amounted to 31%; in assay [4], 77%.
For `Cc1oc([C@H](CC(C)C)NC(=O)c2ccc(Oc3ccccc3)cc2)nc1C(=O)N[C@@H](CCCNC(=N)N)C(=O)O` the same measures were “inactive”, 32% and 68%.
On the same counts, the results for `Cc1oc([C@H](CC(C)C)NC(=O)NCc2ccccc2)nc1C(=O)N[C@@H](CCCNC(=N)N)C(=O)O` are “inactive”, 61% and 50%.
Consider `COc1cccc(CC(=O)N[C@@H](CC(C)C)c2nc(C(=O)N[C@@H](CCCNC(=N)N)C(=O)O)c(C)o2)c1`, for which the inhibition entry in assay [2] is “inactive”. Further, the inhibition in assay [3] was 41%; in assay [4] it was 87%.
Take `Cc1ccc(NC(=O)N[C@@H](CC(C)C)c2nc(C(=O)N[C@@H](CCCNC(=N)N)C(=O)O)c(C)o2)cc1`: the inhibition result in assay [3] was “inactive”. Further, the inhibition in assay [4] came out at 64%.
With `COc1ccc(CC(=O)N[C@@H](CC(C)C)c2nc(C(=O)N[C@@H](CCCNC(=N)N)C(=O)O)c(C)o2)cc1`, in assay [2], the inhibition entry was “inactive”. In addition, the inhibition in assay [3] came to 40%; in assay [4], 26%.
For `Cc1oc([C@H](CC(C)C)NC(=O)c2cncc(Br)c2)nc1C(=O)N[C@@H](CCCNC(=N)N)C(=O)O` the same measures were “inactive”, “inactive” and 105%.
In the case of `Cc1oc([C@H](CC(C)C)NC(=O)CC2CCCCC2)nc1C(=O)N[C@@H](CCCNC(=N)N)C(=O)O`, the inhibition entry in assay [2] was “inactive”. Also, the inhibition came to 26% in assay [3] and 69% in assay [4].
